This note sets out measurements from patent US10118930B2, “Piperidinylpyrazolopyrimidinones and their use” (BAYER PHARMA AKTIENGESELLSCHAFT, priority 2015, dated 2018).

Structures can show the parent of a compound that is named as a salt.

The experiment concerns clot lysis (fibrinolysis) in diluted human citrated plasma, tPA-induced. As to the kind of experiment: Plasma-based clot lysis assay (5%). In kind it is biochemical. The following applies: human citrated platelet-poor plasma 5%, fibrinogen 3 μM, CaCl2 10 mM, tPA 0.2 nM, 37° C., OD at 405 nm. The protocol: B-2. Plasma-based Clot Lysis Assay (5%)
The clot-lysis test system configures the kinetics of clot formation and degradation in vitro and allows quantifying modulation of the process by selected test compounds.
The test compounds were dissolved in 1% acetic acid and further complemented with an equal volume of DMSO. The resulting stock solutions were serially diluted in 0.5% acetic acid/50% DMSO. 1 μL aliquots of these solutions were placed into 384 well microplates (Greiner, black, transparent bottom), followed by 30 μL of diluted human citrated plasma (platelet-poor, final concentration: 5%; supplemented with fibrinogen, final concentration: 3 μM; dilution buffer: 20 mM HEPES, 150 mM NaCl, 0.01% Brij (pH 7)). The reactions were started by addition of 20 μL of CaCl2 (final concentration: 10 mM), and tPA (tissue plasminogen activator, final concentration: 0.2 nM) in dilution buffer, followed by an additional volume of 20 μL dilution buffer for improved mixing. The reactions were incubated at 37° C. […] IC50 values were determined by comparing the resulting time courses with the time course of a blank control reaction.
`COc1ccc(-c2cnn3c(C4CCNCC4)cc(=O)[nH]c23)cn1` [Example 69, 3-(6-Methoxypyridin-3-yl)-7-(piperidin-4-yl)pyrazolo[1,5-a]pyrimidin-5 (4H)-one] came in with an IC50 of 19 nM.
To `O=c1cc(C2CCNCC2)n2ncc(-c3nnc(-c4ccccc4Cl)o3)c2[nH]1` [Example 290, 3-[5-(2-chlorophenyl)-1,3,4-oxadiazol-2-yl]-7-(piperidin-4-yl)pyrazolo[1,5-a]pyrimidin-5(4H)-one hydrochloride] belongs 26 nM; to `Cc1nn2c(C3CCNCC3)cc(=O)[nH]c2c1C(=O)N(C)C` [Example 319, N,N,2-trimethyl-5-oxo-7-(piperidin-4-yl)-4,5-dihydropyrazolo[1,5-a]pyrimidine-3-carboxamide hydrochloride], 75 nM.
The compound `O=C1CCN(C(=O)c2cnn3c(C4CCNCC4)cc(=O)[nH]c23)CCN1` [Example 100, 3-[(5-oxo-1,4-diazepan-1-yl)carbonyl]-7-(piperidin-4-yl)pyrazolo[1,5-a]pyrimidin-5(4H)-one hydrochloride] showed an IC50 of 110 nM.
Then `O=c1cc(C2CCNCC2)n2ncc(-c3nc(-c4ccccc4OC(F)F)cs3)c2[nH]1` [Example 337, 3-{4-[2-(difluoromethoxy)phenyl]-1,3-thiazol-2-yl}-7-(piperidin-4-yl)pyrazolo[1,5-a]pyrimidin-5(4H)-one hydrochloride], with 30 nM; and `O=c1cc(C2CCNCC2)n2ncc(-c3nc(Cc4cccc(C(F)(F)F)c4)no3)c2[nH]1` [Example 222, 7-(piperidin-4-yl)-3-{3-[3-(trifluoromethyl)benzyl]-1,2,4-oxadiazol-5-yl}pyrazolo[1,5-a]pyrimidin-5(4H)-one hydrochloride], with 37 nM; and `O=c1cc(C2CCNCC2)n2ncc(-c3noc(-c4cccc(Cl)c4)n3)c2[nH]1` [Example 226, 3-[5-(3-chlorophenyl)-1,2,4-oxadiazol-3-yl]-7-(piperidin-4-yl)pyrazolo[1,5-a]pyrimidin-5 (4H)-one hydrochloride], with 35 nM.
Then `COc1c(F)cc(Cc2nnc(-c3cnn4c(C5CCNCC5)cc(=O)[nH]c34)o2)cc1F` [Example 444, 3-[5-(3,5-difluoro-4-methoxybenzyl)-1,3,4-oxadiazol-2-yl]-7-(piperidin-4-yl)pyrazolo[1,5-a]pyrimidin-5(4H)-one hydrochloride], with 17 nM.
Consider `CC(C)(c1nnc(-c2cnn3c(C4CCNCC4)cc(=O)[nH]c23)o1)n1cncn1` [Example 275, 7-(piperidin-4-yl)-3-{5-[2-(1H-1,2,4-triazol-1-yl)propan-2-yl]-1,3,4-oxadiazol-2-yl}pyrazolo[1,5-a]pyrimidin-5(4H)-one hydrochloride], for which the IC50 stood at 20 nM.
The compound `O=c1cc(C2CCNCC2)n2ncc(-c3nc(-c4cccc(Cl)c4)cs3)c2[nH]1` [Example 163, 3-[4-(3-chlorophenyl)-1,3-thiazol-2-yl]-7-(piperidin-4-yl)pyrazolo[1,5-a]pyrimidin-5 (4H)-one hydrochloride] gave an IC50 of 40 nM.
`Cc1ccc(Cl)cc1-c1noc(-c2cnn3c(C4CCNCC4)cc(=O)[nH]c23)n1` [Example 141, 3-[3-(5-Chloro-2-methylphenyl)-1,2,4-oxadiazol-5-yl]-7-(piperidin-4-yl)pyrazolo[1,5-a]pyrimidin-5(4H)-one hydrochloride] returned an IC50 of 74 nM.
Then `C[C@H]1C[C@H](c2cc(=O)[nH]c3c(C#N)cnn23)CCN1` [Example 65, (−)-trans-7-(2-Methylpiperidin-4-yl)-5-oxo-4,5-dihydropyrazolo[1,5-a]pyrimidine-3-carbonitrile trifluoroacetate], with 12 nM; and `O=c1cc(C2CCNCC2)n2ncc(-c3coc(-c4ccccc4)n3)c2[nH]1` [Example 372, 3-(2-phenyl-1,3-oxazol-4-yl)-7-(piperidin-4-yl)pyrazolo[1,5-a]pyrimidin-5(4H)-one hydrochloride], with 22 nM; and `O=C(c1cnn2c(C3CCNCC3)cc(=O)[nH]c12)N1CC(F)(F)C1` [Example 326, 3-[(3,3-difluoroazetidin-1-yl)carbonyl]-7-(piperidin-4-yl)pyrazolo[1,5-a]pyrimidin-5 (4H)-one hydrochloride], with 12 nM.
To `Cc1nn2c(C3CCNCC3)cc(=O)[nH]c2c1C(=O)N(C)Cc1ccccc1` [Example 436, N-benzyl-N,2-dimethyl-5-oxo-7-(piperidin-4-yl)-4,5-dihydro-pyrazolo[1,5-a] pyrimidine-3-carboxamide hydrochloride] belongs 39 nM; to `Cc1ccc(-c2noc(-c3cnn4c(C5CCNCC5)cc(=O)[nH]c34)n2)c(C)c1` [Example 127, 3-[3-(2,4-Dimethylphenyl)-1,2,4-oxadiazol-5-yl]-7-(piperidin-4-yl)pyrazolo[1,5-a]pyrimidin-5(4H)-one hydrochloride], 62 nM.
Compound `CS(=O)(=O)Cc1noc(-c2cnn3c(C4CCNCC4)cc(=O)[nH]c23)n1` [Example 191, 3-{3-[(methylsulfonyl)methyl]-1,2,4-oxadiazol-5-yl}-7-(piperidin-4-yl)pyrazolo[1,5-a]pyrimidin-5(4H)-one hydrochloride] yielded a half-maximal inhibitory concentration (IC50) of 34 nM.
Then `Cc1nn2c(C3CCNCC3)cc(=O)[nH]c2c1C(=O)OC(C)(C)C` [Example 468, Tert-butyl 2-methyl-5-oxo-7-(piperidin-4-yl)-4,5-dihydropyrazolo[1,5-a]pyrimidine-3-carboxylate hydrochloride], with 39 nM; and `O=c1cc(C2CCNCC2)n2ncc(-c3noc(C=C4CCCC4)n3)c2[nH]1` [Example 384, 3-[5-(Cyclopentylidenemethyl)-1,2,4-oxadiazol-3-yl]-7-(piperidin-4-yl)pyrazolo[1,5-a]pyrimidin-5 (4H)-one hydrochloride], with 26 nM; and `NC(=S)c1cnn2c(C3CCNCC3)cc(=O)[nH]c12` [Example 287, 5-oxo-7-(piperidin-4-yl)-4,5-dihydropyrazolo[1,5-a]pyrimidine-3-carbothioamide hydrochloride], with 37 nM.
The compound `O=c1cc(C2CCNCC2)n2ncc(C3CC3)c2[nH]1` [Example 344, 3-cyclopropyl-7-(piperidin-4-yl)pyrazolo[1,5-a]pyrimidin-5(4H)-one hydrochloride] showed an IC50 of 120 nM.
To `O=c1cc(C2CCNCC2)n2ncc(CN3CCS(=O)(=O)CC3)c2[nH]1` [Example 345, 3-[(1,1-dioxidothiomorpholin-4-yl)methyl]-7-(piperidin-4-yl)pyrazolo[1,5-a]pyrimidin-5 (4H)-one hydrochloride] belongs 120 nM; to `CC1CCCN(C(=O)c2cnn3c(C4CCNCC4)cc(=O)[nH]c23)C1C` (stereo not shown) [Example 104, 3-[(2,3-dimethylpiperidin-1-yl)carbonyl]-7-(piperidin-4-yl)pyrazolo[1,5-a]pyrimidin-5(4H)-one hydrochloride], 31 nM; to `Cc1nn2c(C3CCNCC3)cc(=O)[nH]c2c1C(=O)OCCC(F)(F)F` [Example 466, 3,3,3-trifluoropropyl 2-methyl-5-oxo-7-(piperidin-4-yl)-4,5-dihydropyrazolo[1,5-a]pyrimidine-3-carboxylate hydrochloride], 85 nM.
On to `COCCCc1nc(-c2cnn3c(C4CCNCC4)cc(=O)[nH]c23)no1` [Example 395, 3-(5-(3-methoxypropyl)-1,2,4-oxadiazol-3-yl)-7-(piperidin-4-yl)pyrazolo[1,5-a]pyrimidin-5(4H)-one hydrochloride], for which the IC50 is 27 nM.
Then `CC1(C)CCN(C(=O)c2cnn3c(C4CCNCC4)cc(=O)[nH]c23)C1` [Example 462, 3-[(3,3-dimethylpyrrolidin-1-yl)carbonyl]-7-(piperidin-4-yl)pyrazolo[1,5-a]pyrimidin-5 (4H)-one hydrochloride], with 34 nM.
Then `Cc1ccc(NC(=O)c2cnn3c(C4CCNCC4)cc(=O)[nH]c23)cc1C` [Example 85, N-(3,4-dimethylphenyl)-5-oxo-7-(piperidin-4-yl)-4,5-dihydropyrazolo[1,5-a]pyrimidine-3-carboxamide hydrochloride], with 32 nM; and `O=c1cc(C2CCNCC2)n2ncc(-c3noc(C4CCCO4)n3)c2[nH]1` (racemic) [Example 389, Rac-7-(piperidin-4-yl)-3-(5-(tetrahydrofuran-2-yl)-1,2,4-oxadiazol-3-yl)pyrazolo[1,5-a]pyrimidin-5(4H)-one hydrochloride], with 30 nM.
Then `Cc1nn2c(C3CCNCC3)cc(=O)[nH]c2c1C(=O)N1CC2CCCCC2C1` (stereo not shown) [Example 413, 2-methyl-3-(octahydro-2H-isoindol-2-ylcarbonyl)-7-(piperidin-4-yl) pyrazolo[1,5-a] pyrimidin-5(4H)-one hydrochloride], with 35 nM; and `O=c1cc(C2CCNCC2)n2ncc(-c3nnc(-c4ccco4)o3)c2[nH]1` [Example 178, 3-[5-(2-furyl)-1,3,4-oxadiazol-2-yl]-7-(piperidin-4-yl)pyrazolo[1,5-a]pyrimidin-5 (4H)-one hydrochloride], with 34 nM.
The compound `O=c1cc(C2CCNCC2)n2ncc(-c3ccccc3C(F)(F)F)c2[nH]1` [Example 63, 7-(Piperidin-4-yl)-3-[2-(trifluoromethyl)phenyl]pyrazolo[1,5-a]pyrimidin-5(4H)-one hydrochloride] yielded an IC50 of 40 nM.
